Data set [1] deals with T1, ROCK2 (Homo sapiens, UniProt O75116).
T1 construct: purchased Upstate/Chemicon 14-451
Nature of the data set: Rho kinase inhibition assay (IMAP fluorescence polarization), ROCK2.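 Note: kinase reaction started with 10 µM ATP and run 60 min at room temperature, then phosphorylated substrate captured on IMAP beads for 30 min and fluorescence polarization read in mP.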 The class given is biochemical. (In fluorescence polarisation assays a small probe gives low polarisation when free and higher when bound to something large.)
Experimental: Following the pre-incubation, 10 μM ATP was added to initiate the reaction. After 60 minutes at room temperature, Molecular Devices IMAP™ binding solution was added to bind phosphorylated substrate. After 30 minutes of incubation in the presence of the IMAP™ beads, the fluorescence polarization was read and the ratio was reported as mP. IC50 values for compounds and EC50 values for ATP were calculated using the Prism software from Graphpad.

Data set [2] has as its target T2, p70S6K human enzyme (Homo sapiens, UniProt P23443, T412E).
T2 construct: purchased Upstate Chemicon 14-486
Nature of the data set: p70S6K inhibition assay (IMAP FP).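 Note: kinase reaction run at room temperature, phosphorylated substrate captured on IMAP beads and read as fluorescence polarization in mP, IC50 then converted to Ki.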 The class given is biochemical.
Experimental: Inhibition of Akt3 and p70S6K activity was determined using the IMAP™ FP Progressive Binding Kit (Molecular Devices product number R8127). […] Following the pre-incubation, 30 μM ATP was added to initiate the reaction. After 60 minutes at RT, Molecular Devices IMAP™ binding solution was added to bind phosphorylated substrate. After 30 minutes of incubation in the presence of the IMAP™ beads the fluorescence polarization was read and the ratio was reported as mP. IC50 results were calculated using the Prism software from Graphpad. The Ki values were determined according to the following formula: Ki=IC50/(1+([ATP Challenge]/EC50 ATP)).

Data set [3] can be described thus: Compound plasma concentrations in unsensitized mice at 15 min post administration. The format is in vivo. The note with it: mouse, 15 μmol/kg; mean compound plasma concentration in mice at 15 minutes post oral administration; read-out: Mouse Oral PK.
Data set [4] has as its target T3, IRAK1 (Homo sapiens, UniProt P51617).
T3 construct: purchased Upstate, Millipore Bioscience Division (KinaseProfiler service)
Nature of the data set: Kinase panel screen (KinaseProfiler), IRAK1. The class given is biochemical. The following applies: 10 μM ATP. On the procedure: (§1) Compounds of Formulae I and II were examined for activity against a selected panel of kinases using the KinaseProfiler™ enzyme profiling services (Upstate, Millipore Bioscience Division). Percent kinase activity at 10 μM and 1 μM test compound and 10 μM ATP was determined against 40 wild-type recombinant human kinases according to Upstate's standard protocol: ASK1, BTK, CSK, c-RAF, GCK, GSK3β, IKKα, IKKβ, IRAK1, IRAK4, JNK1α1, JNK2α2, JNK3, ERK1, ERK2, MAPKAP-K2, MAPKAP-K3, MEK1, MKK4, MKK6, MKK7β, Mnk2, MSK1, PAK3, PDK1, PRAK, ROCK1, Rsk2, SAPK2a, SAPK2b, SAPK3, SAPK4, SRPK1, SRPK2, Syk, TAK1, TBK1, PI3-Kβ, PI3-Kγ, PI3-Kδ.

The target in data set [5] is T4, IRAK4 (Homo sapiens, UniProt Q9NWZ3).
T4 construct: purchased Upstate, Millipore Bioscience Division (KinaseProfiler service)
T4 sequence (Q9NWZ3 1-460): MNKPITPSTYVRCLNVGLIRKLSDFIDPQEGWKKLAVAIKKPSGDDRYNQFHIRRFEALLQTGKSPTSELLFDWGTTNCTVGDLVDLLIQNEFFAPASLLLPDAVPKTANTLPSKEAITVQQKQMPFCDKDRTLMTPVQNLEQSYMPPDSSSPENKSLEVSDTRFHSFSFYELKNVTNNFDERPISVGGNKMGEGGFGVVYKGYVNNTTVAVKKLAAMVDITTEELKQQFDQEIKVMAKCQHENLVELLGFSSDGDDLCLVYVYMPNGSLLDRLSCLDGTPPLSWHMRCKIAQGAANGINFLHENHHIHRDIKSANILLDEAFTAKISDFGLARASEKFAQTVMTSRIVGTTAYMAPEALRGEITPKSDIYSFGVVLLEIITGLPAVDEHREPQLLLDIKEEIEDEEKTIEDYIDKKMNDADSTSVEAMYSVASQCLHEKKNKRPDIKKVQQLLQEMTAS
Nature of the data set: Kinase panel screen (KinaseProfiler), IRAK4. The format is biochemical. The note with it: 10 μM ATP. On the procedure: as §1

Read-outs that look alike come from different tables or passages of the source.

T2 sequence (P23443 1-421 T412E limits assumed): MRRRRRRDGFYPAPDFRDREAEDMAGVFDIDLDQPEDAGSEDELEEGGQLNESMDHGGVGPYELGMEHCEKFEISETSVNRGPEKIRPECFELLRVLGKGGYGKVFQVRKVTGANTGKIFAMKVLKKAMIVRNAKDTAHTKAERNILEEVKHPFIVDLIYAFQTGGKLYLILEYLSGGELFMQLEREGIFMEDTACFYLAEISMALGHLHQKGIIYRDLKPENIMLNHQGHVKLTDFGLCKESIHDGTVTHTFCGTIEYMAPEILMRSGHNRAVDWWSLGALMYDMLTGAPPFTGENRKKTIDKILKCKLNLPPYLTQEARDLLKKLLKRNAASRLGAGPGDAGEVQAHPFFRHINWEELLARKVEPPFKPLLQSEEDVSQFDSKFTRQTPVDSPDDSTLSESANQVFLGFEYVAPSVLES
T1 sequence (O75116 11-552 limits assumed): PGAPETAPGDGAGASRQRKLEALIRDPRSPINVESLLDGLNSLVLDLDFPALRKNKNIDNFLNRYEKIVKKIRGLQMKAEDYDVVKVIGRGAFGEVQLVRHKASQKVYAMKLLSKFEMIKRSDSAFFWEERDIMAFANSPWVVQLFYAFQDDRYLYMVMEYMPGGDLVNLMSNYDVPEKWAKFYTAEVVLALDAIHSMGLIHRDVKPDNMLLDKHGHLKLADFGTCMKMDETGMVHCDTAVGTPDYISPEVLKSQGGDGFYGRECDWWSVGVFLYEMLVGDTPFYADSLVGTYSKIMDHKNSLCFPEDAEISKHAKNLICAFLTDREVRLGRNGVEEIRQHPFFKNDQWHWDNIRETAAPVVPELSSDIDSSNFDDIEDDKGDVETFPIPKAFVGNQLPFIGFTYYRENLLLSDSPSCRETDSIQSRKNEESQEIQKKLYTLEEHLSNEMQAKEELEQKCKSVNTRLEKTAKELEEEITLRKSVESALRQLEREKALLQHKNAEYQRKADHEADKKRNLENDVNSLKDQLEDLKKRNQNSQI
T3 sequence (P51617 whole entry): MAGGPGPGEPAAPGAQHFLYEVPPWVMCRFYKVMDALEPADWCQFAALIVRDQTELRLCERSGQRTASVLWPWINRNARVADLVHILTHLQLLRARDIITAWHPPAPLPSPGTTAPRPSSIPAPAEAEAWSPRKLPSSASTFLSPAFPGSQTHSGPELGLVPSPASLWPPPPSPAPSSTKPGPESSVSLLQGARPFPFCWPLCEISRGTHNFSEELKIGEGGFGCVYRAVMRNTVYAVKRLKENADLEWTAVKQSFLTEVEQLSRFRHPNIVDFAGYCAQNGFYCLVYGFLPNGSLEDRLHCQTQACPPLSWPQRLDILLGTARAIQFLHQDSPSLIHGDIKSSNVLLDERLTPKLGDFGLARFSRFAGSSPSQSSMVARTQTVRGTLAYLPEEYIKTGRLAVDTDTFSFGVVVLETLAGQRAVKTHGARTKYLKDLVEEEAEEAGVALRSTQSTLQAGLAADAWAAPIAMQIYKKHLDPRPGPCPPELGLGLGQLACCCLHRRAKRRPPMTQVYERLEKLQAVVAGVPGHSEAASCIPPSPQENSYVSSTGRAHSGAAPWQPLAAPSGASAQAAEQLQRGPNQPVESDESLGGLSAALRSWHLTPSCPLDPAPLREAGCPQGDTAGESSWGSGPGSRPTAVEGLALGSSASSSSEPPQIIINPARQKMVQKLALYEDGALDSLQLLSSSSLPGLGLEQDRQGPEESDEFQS

For `NC(=O)Cn1ccc2cc(CN3CC[C@@H](Nc4cccc5cnccc45)C3)ccc21` [Compound 2.059, (R)-2-(5-((3-(isoquinolin-5-ylamino)pyrrolidin-1-yl)methyl)-1H-indol-1-yl)acetamide], the Ki (usually the equilibrium dissociation constant of an inhibitor or competing ligand from its target) in data set [1] (10 μM ATP, read-out: ROCK2 Ki, Avg) came to 2.7 nM; in data set [1] (average Ki, read-out: ROCK2 Ki), 2.7 nM; in data set [2] (30 μM ATP, Ki=IC50/(1+([ATP Challenge]/EC50 ATP)), read-out: p70S6K Ki, Avg), 208 nM; in data set [2] (average Ki, read-out: p70S6K Ki), 208 nM. Also, the concentration at 15 min in data set [3] amounted to 90 nM. Besides, the activity at 1 µM stood at 87% in data set [4] (1 μM test compound, read-out: IRAK1 Percent inhibition, 1 μM) and 63% in data set [5] (1 μM test compound, read-out: IRAK4 Percent inhibition, 1 μM). The activity at 10 µM in data set [4] (10 μM test compound, read-out: IRAK1 Percent inhibition, 10 μM) was determined as 30%; in data set [5] (10 μM test compound, read-out: IRAK4 Percent inhibition, 10 μM) it was 22%.

(Values after patent US20090325959A1 (priority 2008, published 2009).)
